The source made the active and inactive calls.
How the values were obtained:
[1] = THP-1 cell cytotoxicity, dose response, cytotoxicity control for Vif-APOBEC3G degradation inhibitor project, THP-1 cells (AID 1117359); assay type: functional; details: Human immunodeficiency virus 1, THP-1
[2] = target: T1, Endoribonuclease toxin MazF (Escherichia coli K-12, UniProt P0AE70); assay: MazF toxin RNase activators, dose response, biochemical, fluorescence, single-stranded RNA substrate, uHTS hits (AID 588481); assay type: functional
T1 sequence (P0AE70 whole entry): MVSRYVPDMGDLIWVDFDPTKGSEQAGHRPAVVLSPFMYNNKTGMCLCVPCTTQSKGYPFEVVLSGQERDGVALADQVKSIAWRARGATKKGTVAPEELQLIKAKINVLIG

[3] = HEp-2 cell cytotoxicity, dose response, cytotoxicity control for RSV inhibitor project, HTS (AID 2410); assay type: functional; details: human respiratory syncytial virus
[4] = target: T1, Endoribonuclease toxin MazF; assay: fluorescent RNA oligo signal without MazF, dose response, counter-screen for MazEF activator project, biochemical, fluorescence, single-stranded RNase substrate (AID 588502); assay type: functional
[5] = inhibitors of clade B AD8 Env fusion, dose response, cell-based, cherry-pick (AID 652062); assay type: functional;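 further: luciferase signal from cell-cell fusion driven by HIV-1 clade B AD8 Env; potency is for inhibitors of fusion seen as a drop in luminescence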
[6] = off-target signal loss in HeLa-CEM21 co-culture – HeLa F-luc CTL cells, cherry-picked, counter-screen for HIV-1 Env fusion inhibitor project, dose response (AID 652040); assay type: functional, cell-based;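 further: potency for signal decrease marking cytotoxic or nonspecific inhibition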
[7] = ZM109 Env clade C HIV-1 fusion inhibitors, dose response, HeLa effector, CEM target cells, luciferase, cherry-pick (AID 652058); assay type: functional, cell-based
[8] = inhibitors of HIV Env-driven cell fusion, dose response, cherry-pick (AID 652057); assay type: functional, cell-based
[9] = target: T2, RNA-binding protein pos-1 (Caenorhabditis elegans, UniProt G5EF15); assay: inhibitors of POS-1/mex-3 RNA binding, dose response, biochemical, fluorescence polarization (AID 1964);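 further: purified POS-1 fused to maltose binding protein made in E. coli; potency of compounds blocking POS-1 binding to fluorescent RNA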
T2 sequence (G5EF15 whole entry): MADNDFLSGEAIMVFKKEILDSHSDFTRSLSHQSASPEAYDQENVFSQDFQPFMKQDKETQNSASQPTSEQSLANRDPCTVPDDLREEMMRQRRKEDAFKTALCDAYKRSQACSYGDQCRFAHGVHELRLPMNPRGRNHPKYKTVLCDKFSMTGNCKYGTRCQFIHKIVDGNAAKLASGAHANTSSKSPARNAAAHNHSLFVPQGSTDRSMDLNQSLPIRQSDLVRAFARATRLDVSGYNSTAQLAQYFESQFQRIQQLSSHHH

[10] = target: T3, DNA repair protein RAD52 homolog (Homo sapiens, UniProt P43351); assay type: functional, biochemical
T3 sequence (P43351 whole entry): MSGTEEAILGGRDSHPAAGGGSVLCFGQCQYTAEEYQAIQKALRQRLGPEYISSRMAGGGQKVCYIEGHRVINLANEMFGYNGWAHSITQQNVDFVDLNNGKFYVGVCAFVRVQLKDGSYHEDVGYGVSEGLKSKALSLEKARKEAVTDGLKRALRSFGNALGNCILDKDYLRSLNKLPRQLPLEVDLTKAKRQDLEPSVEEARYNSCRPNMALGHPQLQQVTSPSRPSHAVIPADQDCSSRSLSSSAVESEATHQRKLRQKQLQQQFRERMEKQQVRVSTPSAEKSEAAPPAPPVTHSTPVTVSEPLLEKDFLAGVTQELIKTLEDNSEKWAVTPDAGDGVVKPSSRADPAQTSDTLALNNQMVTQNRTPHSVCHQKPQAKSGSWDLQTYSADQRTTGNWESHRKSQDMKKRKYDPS

[11] = target: T4, Zinc finger protein mex-5 (Caenorhabditis elegans, UniProt Q9XUB2); assay: MEX-5/TCR-2 RNA interaction inhibitors, dose response, biochemical, C. elegans, fluorescence polarization (AID 1960)
T4 sequence (Q9XUB2 whole entry): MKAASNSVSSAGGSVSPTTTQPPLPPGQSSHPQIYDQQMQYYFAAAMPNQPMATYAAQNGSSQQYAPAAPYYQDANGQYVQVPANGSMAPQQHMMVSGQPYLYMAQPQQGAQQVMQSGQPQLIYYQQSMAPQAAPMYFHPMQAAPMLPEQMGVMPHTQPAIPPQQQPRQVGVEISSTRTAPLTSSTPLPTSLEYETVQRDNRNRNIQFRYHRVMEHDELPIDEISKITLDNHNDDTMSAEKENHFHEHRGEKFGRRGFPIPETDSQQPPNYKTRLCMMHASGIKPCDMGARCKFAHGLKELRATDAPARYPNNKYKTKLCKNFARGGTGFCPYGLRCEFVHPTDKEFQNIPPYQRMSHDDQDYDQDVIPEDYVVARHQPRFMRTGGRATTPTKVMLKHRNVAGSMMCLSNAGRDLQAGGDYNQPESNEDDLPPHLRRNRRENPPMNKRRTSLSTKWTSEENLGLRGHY

[12] = target: T5, DNA repair and recombination protein RAD54-like (Homo sapiens, UniProt Q92698); assay: inhibitors of human RAD54 branch migration, confirmation, biochemical, fluorescence, cherry-picked samples, dose series (AID 651657); assay type: functional
T5 sequence (Q92698 whole entry): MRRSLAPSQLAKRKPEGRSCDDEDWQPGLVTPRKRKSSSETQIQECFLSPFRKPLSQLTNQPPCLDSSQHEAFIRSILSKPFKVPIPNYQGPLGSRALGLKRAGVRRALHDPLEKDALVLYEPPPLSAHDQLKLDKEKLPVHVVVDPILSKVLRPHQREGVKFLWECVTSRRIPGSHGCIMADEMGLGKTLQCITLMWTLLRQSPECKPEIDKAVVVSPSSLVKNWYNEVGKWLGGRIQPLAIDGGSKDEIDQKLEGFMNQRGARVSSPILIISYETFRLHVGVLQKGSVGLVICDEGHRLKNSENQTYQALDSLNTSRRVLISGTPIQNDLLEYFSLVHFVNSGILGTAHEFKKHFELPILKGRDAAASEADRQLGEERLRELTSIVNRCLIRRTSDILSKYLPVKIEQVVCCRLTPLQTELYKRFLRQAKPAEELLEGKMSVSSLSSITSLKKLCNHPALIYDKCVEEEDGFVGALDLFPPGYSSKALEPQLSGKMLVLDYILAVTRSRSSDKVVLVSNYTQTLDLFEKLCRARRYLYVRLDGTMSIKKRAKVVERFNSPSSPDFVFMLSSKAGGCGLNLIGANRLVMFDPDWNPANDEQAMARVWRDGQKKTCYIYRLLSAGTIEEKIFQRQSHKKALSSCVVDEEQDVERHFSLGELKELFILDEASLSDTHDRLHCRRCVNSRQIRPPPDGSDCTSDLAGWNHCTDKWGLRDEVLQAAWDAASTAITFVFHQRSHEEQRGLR

[13] = LGR2 antagonists, dose response, cell-based, HEK293, CRE-luciferase reporter, cherry pick, set 2 (AID 743343); assay type: functional;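 further: transfected cells were stimulated with diluted bursicon conditioned medium after compound addition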
[14] = MC4R antagonists, dose response, counter-screen for LGR2 antagonist project, cell-based, plate reader, cherry pick (AID 743444); assay type: functional;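 further: transfected HEK 293 cells stimulated with alpha-MSH peptide; potency of inhibitors of the alpha-MSH evoked signal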
[15] = HEK293 cell cytotoxicity, dose response, cytotoxicity control, plate reader, cherry-picked samples (AID 743446); assay type: functional, cell-based
[16] = HepG2 cell cytotoxicity, dose response, cytotoxicity control, plate reader, cherry-pick, antagonist series (AID 743416); assay type: functional, cell-based
[17] = A549 cell cytotoxicity, dose response, cytotoxicity control, plate reader, cherry-pick, antagonist series (AID 743412); assay type: functional, cell-based
Paired box protein Pax-8 = Paired box protein Pax-8 (Homo sapiens, UniProt Q06710); assay: inhibitors of PAX8-driven TPO luciferase reporter, dose response, RMG-I cells, cherry-pick (AID 687027); assay type: functional, cell-based;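 further: luciferase reporter driven by Pax8 target thyroperoxidase promoter measured by SteadyGlo luminescence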
Sequence of Paired box protein Pax-8 (Q06710 whole entry): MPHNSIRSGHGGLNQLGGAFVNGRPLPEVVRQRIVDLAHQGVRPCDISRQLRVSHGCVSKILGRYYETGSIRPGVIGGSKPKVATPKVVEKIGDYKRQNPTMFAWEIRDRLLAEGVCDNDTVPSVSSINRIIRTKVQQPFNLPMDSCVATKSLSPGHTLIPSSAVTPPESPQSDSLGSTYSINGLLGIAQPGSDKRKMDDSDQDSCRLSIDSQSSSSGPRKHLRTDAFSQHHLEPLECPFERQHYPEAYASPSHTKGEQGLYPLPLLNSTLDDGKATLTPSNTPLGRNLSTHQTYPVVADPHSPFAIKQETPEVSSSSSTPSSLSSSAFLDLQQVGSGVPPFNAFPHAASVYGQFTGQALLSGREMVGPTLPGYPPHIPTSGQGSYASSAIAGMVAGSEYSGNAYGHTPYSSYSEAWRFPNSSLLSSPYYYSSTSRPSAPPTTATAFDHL

[18] = inhibitors of PGC1a acetylation in cells, dose response, cell-based, cherry-picked samples (AID 720514); assay type: functional;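 further: potency may reflect raised or lowered acetylation signal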
[19] = non-specific cell cytotoxicity, dose response, cytotoxicity control for PAX8 inhibitor project, plate reader, dry powder samples (AID 743021); assay type: functional, cell-based

SMILES: COc1ccc(CCNCc2ccc(OCc3ccccc3)cc2)cc1
- CC50 [1]: 21.9 µM (active)

SMILES: O=c1oc(/C=C/c2ccccc2)nc2sc3c(c12)CCC3
- EC50 [2]: > 99 µM (inactive)
- IC50 (cells): 39.6 µM (active)
- CC50 [3]: 28.4 µM (active)
- EC50 [4]: > 99 µM (inactive)

SMILES: O=C(NCc1ccco1)c1ccc(Cn2c(=O)c3sccc3n(Cc3cccc(F)c3)c2=O)cc1
- AC50 [5]: 2.36 µM (active)
- IC50 (cells): 5.66 µM (active)
- AC50 [6]: 0.348 µM (active)
- AC50 [7]: 0.58 µM (active)
- CC50 [3]: > 12.5 µM (active)
- AC50 [8]: < 0.26 µM (active)

SMILES: CC(C)OCC(O)CN1CCN(CCN2C(=O)c3cccc4cccc(c34)C2=O)CC1 (centres undefined)
- EC50 [9]: > 300 µM (not active)
- AC50 [10]: 3.93 µM (active)
- EC50 [11]: > 300 µM (not active)
- AC50 [12]: 8.86 µM (active)

SMILES: O=C(c1ccco1)N1CCN(C(=O)C2CCCc3c2[nH]c2ccc(Cl)cc32)CC1 (centres undefined)
- IC50 (cells): 16 µM (active)
- CC50 [3]: 16.2 µM (active)

SMILES: COc1cc(C(=O)NC2CCN(C)CC2)ccc1Nc1ncc2c(n1)N(CCc1ccccc1)CCC(=O)N2C
- AC50 [10]: 8.71 µM (active)

SMILES: Oc1nc2ccccc2n1C1CCN(C(c2cc3ccccc3o2)c2nnnn2Cc2ccccc2)CC1 (centres undefined)
- AC50 [13]: 13.5 µM (active)
- AC50 [14]: 9.44 µM (active)
- AC50 [15]: 14.7 µM (active)
- AC50 [16]: 24.8 µM (active)
- AC50 [17]: 9.97 µM (active)
- AC50 (Paired box protein Pax-8): 6.31 µM (active)
- AC50 [18]: 9.76 µM (active)
- AC50 [19]: 19 µM (active)

SMILES: O=C(N[C@@H]1CC[C@@H](CCNS(=O)(=O)c2ccccc2Cl)O[C@@H]1CO)c1ccc(F)cc1
- AC50 [18]: 36.1 µM (active)

SMILES: COc1ccc(-c2cc(C(=O)N/N=C/c3ccc4c(c3)OCO4)c3ccccc3n2)c(OC)c1
- IC50 (cells): 27.9 µM (active)
- CC50 [3]: 44.4 µM (active)
